Data reported in US10336716B2, “Thermodynamically stable crystal modification of 2-methyl-N-(5-methyl-1, 3, 4-oxadiazol-2-yl)-3-(methylsulfonyl)-4-(trifluoromethyl)benzamide” (Bayer CropScience Aktiengesellschaft, priority 2015, dated 2019).

Assays:
Type in all cases: physicochemical
[1] = wettability on mixing with water (first comparative experiment)
Description: Moreover, the benzamide obtainable according to the disclosure of WO 2012/126932 A1 has the disadvantage that it can be less readily worked up, filtered, purified and wetted with solvents. […] These disadvantages are overcome by the provision of the thermodynamically stable benzamide according to the invention.

[2] = testing in practice of suspension formulations; conditions: suspension formulation, benzamide finely ground in solid form
Description: The benzamide known for example from WO 2012/126932 A1 (example No. 2-145 in table 2 therein) has herbicidal properties and is suitable for the production of crop protection compositions which can be employed for weed control. However, it has been shown that the benzamide obtainable according to the disclosure of WO 2012/126932 A1 is not suitable for the preparation of user-friendly administration forms. User-friendly administration forms are, for example, suspension formulations in which the benzamide is present finely ground in solid form. […] The crystal growth can occur spontaneously or over a longer period and cannot be predicted.

[3] = stability test: storage of oil dispersion; conditions: after several weeks of storage

Row | Structure (SMILES) | wettability with solvents (in words) ([1]; solvents such as water and aqueous solvents) | crystal growth in suspension formulations [2] | wettability ([1]; after 1 minute on mixing with water) | clumping and precipitation of oil dispersion on storage [3]
1 | Cc1nnc(NC(=O)c2ccc(C(F)(F)F)c(S(C)(=O)=O)c2C)o1 [2-methyl-N-(5-methyl-1,3,4-oxadiazol-2-yl)-3-(methylsulfonyl)-4-(trifluoromethyl)benzamide] | poorer wettability | leads to crystal growth in suspension formulations and consequently to clumping and precipitation | – | –
2 | Cc1nnc(NC(=O)c2ccc(C(F)(F)F)c(S(C)(=O)=O)c2C)o1 [crystal modification A, 2-methyl-N-(5-methyl-1,3,4-oxadiazol-2-yl)-3-(methylsulfonyl)-4-(trifluoromethyl)benzamide] | – | – | 100% | no signs of clumping and precipitation
